From patent US4362870A, “Selective opioid receptor alkylating agents” (priority 1981, dated 1982)
Like-named read-outs stand apart in the source and are kept apart here.

What was measured:
[1] = test system: electrically stimulated guinea pig ileal longitudinal muscle; experiment: cells; type: cell-based; settings: for IC50 Ratio FNA/Control: agonist IC50 after FNA (2 × 10^-8, 30 min, 20 washes) / control
morphine analgesia = experiment: Duration of inhibitory effect on morphine analgesia, mouse; type: in vivo; settings: HCl salt; 4.8 nmol/mouse intracebroventricular
Protocol: At 4.8 nmol/mouse (intracebroventricular) or at 5 mg/kg i.p. in the rat, the antagonist effects of FNA (as its HCl salt) lasted at least three days (FIG. 1). The vertical bars represent 95% confidence intervals of the ED50 values.

effects of morphine [2] = experiment: Duration of inhibitory effect on morphine, rat; type: in vivo; settings: HCl salt; 5 mg/kg i.p. in the rat
Source text: (§1) The vertical bars represent 95% confidence intervals of the ED50 values.

effects of morphine [3] = experiment: Duration of inhibitory effect on morphine (species not given); type: in vivo
Source text: as §1

[4] = test system: analgesic response of mice; experiment: Analgesic response of mice to FNA; type: in vivo, mouse
Protocol: FIG. 2 is a graphic representation of the analgesic response of mice to FNA.
The analgesic response of mice to FNA was tested.

[5] = Toxic effects at a single dose; type: in vivo; settings: single dose which completely blocks morphine for at least three days
[6] = test system: electrically stimulated guinea pig ileal longitudinal muscle strip; experiment: Guinea pig ileum: morphine IC50 ratio before and after exposure to the test compound (Examples V-XIV); type: cell-based; settings: 30 min exposure, 20 washes
Protocol: Details of the assay are found in Rang, Br. J. PHarmacol., 22, 356 (1964).
of the electrically stimulated guinea pig ileal longitudinal muscle strip
(treated) exposure (30 min) of the ileal preparation to the test compound
(2 × 10^-8 M) followed by 20 washes are expressed as a ratio, […]

[7] = background statement; cited from earlier work
[8] = test system: β-endorphin-induced stimulation of food intake; settings: prior report; cited from earlier work

CSCC[C@H](NC(=O)[C@H](Cc1ccccc1)NC(=O)CNC(=O)[C@@H](C)NC(=O)[C@@H](N)Cc1ccc(O)cc1)C(N)=O [D-Ala^2 -- Met-- enkephlin- Amide]
IC50 ([1]; after FNA (2 × 10^-8) incubated 30 minutes, washed 20 times, read-out: IC50 After FNA): 29.1 nM | IC50 Ratio FNA/Control [1]: 6.9 | IC50 ([1]; control, before FNA, guinea pig ileum, read-out: IC50 Control): 4.2 nM

COC(=O)/C=C/C(=O)N[C@@H]1CC[C@@]2(O)[C@H]3Cc4ccc(O)c5c4[C@@]2(CCN3CC2CC2)[C@H]1O5 [FNA, fumarnaltrexamine]
inhibition of agonist effects of nalorphine or pentazocine ([1]; FNA 2×10^-8 M, 30 minutes): did not inhibit the agonist effects of nalorphine or pentazocine | inhibition of response to morphine and enkephalin ([1]; FNA 2×10^-8 M, 30 minutes): inhibited irreversibly | block of agonist effects of morphine, enkephalin, pentazocine and nalorphine (selectivity) ([1]; electrically stimulated guinea pig ileum, summary statement in description): irreversibly block the agonist effects of morphine or enkephalin but not the agonist effects of pentazocine or nalorphine | duration of antagonist effects (morphine analgesia): at least three | duration of antagonist effects (effects of morphine [2]): at least three | duration of complete block of the effects of morphine (effects of morphine [3]; single dose): at least three | analgesia [4]: reversible analgesia | reversal of analgesia by its own antagonistic properties [4]: not reversed by its own antagonistic properties | toxic effects [5]: no toxic effects

CC(=O)/C=C/C(=O)N[C@@H]1CC[C@@]2(O)[C@H]3Cc4ccc(O)c5c4[C@@]2(CCN3CC2CC2)[C@H]1O5 [IX]
IC50 Ratio, morphine IC50 (treated)/morphine IC50 (control) ([6]; test compound 2 × 10^-8 M): 6.4

C=CCN1CC[C@]23c4c5ccc(O)c4O[C@H]2[C@@H](O)C=C[C@H]3[C@H]1C5 [Nalorphine]
IC50 ([1]; Cavia porcellus, 0.5 h, after FNA (2 × 10^-8) incubated 30 minutes, washed 20 times, read-out: IC50 After FNA): 25.2 nM | IC50 ([1]; Cavia porcellus, control, before FNA, guinea pig ileum, read-out: IC50 Control): 28.1 nM | IC50 Ratio FNA/Control [1]: 0.9

O=C(/C=C/C(=O)OCCc1ccccc1)N[C@@H]1CC[C@@]2(O)[C@H]3Cc4ccc(O)c5c4[C@@]2(CCN3CC2CC2)[C@H]1O5 [VIII]
IC50 Ratio, morphine IC50 (treated)/morphine IC50 (control) ([6]; test compound 2 × 10^-8 M): 12.8

O=C(/C=C/C(=O)OCc1ccccc1)N[C@@H]1CC[C@@]2(O)[C@H]3Cc4ccc(O)c5c4[C@@]2(CCN3CC2CC2)[C@H]1O5 [VII]
IC50 Ratio, morphine IC50 (treated)/morphine IC50 (control) ([6]; test compound 2 × 10^-8 M): 3.4

CCCOC(=O)/C=C/C(=O)N[C@@H]1CC[C@@]2(O)[C@H]3Cc4ccc(O)c5c4[C@@]2(CCN3CC2CC2)[C@H]1O5 [VI]
IC50 Ratio, morphine IC50 (treated)/morphine IC50 (control) ([6]; test compound 2 × 10^-8 M): 4.4

CCOC(=O)/C=C/C(=O)N[C@@H]1CC[C@@]2(O)[C@H]3Cc4ccc(O)c5c4[C@@]2(CCN3CC2CC2)[C@H]1O5 [V]
IC50 Ratio, morphine IC50 (treated)/morphine IC50 (control) ([6]; test compound 2 × 10^-8 M): 2.8

Oc1ccc2c3c1O[C@H]1[C@H](N=C=S)CC[C@@]4(O)[C@@H](C2)N(CC2CC2)CC[C@]314 [XIII]
IC50 Ratio, morphine IC50 (treated)/morphine IC50 (control) ([6]; test compound 2 × 10^-8 M): 2.3

O=C(CI)N[C@@H]1CC[C@@]2(O)[C@H]3Cc4ccc(O)c5c4[C@@]2(CCN3CC2CC2)[C@H]1O5 [XII]
IC50 Ratio, morphine IC50 (treated)/morphine IC50 (control) ([6]; test compound 10^-6 M): 25.6

C=CCN1CC[C@]23c4c5ccc(O)c4O[C@H]2[C@H](NC(=O)/C=C/C(=O)OC)CC[C@@]3(O)[C@H]1C5 [XIV]
IC50 Ratio, morphine IC50 (treated)/morphine IC50 (control) ([6]; test compound 10^-7 M): 6.4

C=C(Cl)C(=O)N[C@@H]1CC[C@@]2(O)[C@H]3Cc4ccc(O)c5c4[C@@]2(CCN3CC2CC2)[C@H]1O5 [XI]
IC50 Ratio, morphine IC50 (treated)/morphine IC50 (control) ([6]; test compound 2 × 10^-8 M): 8.2

C=CC(=O)N[C@@H]1CC[C@@]2(O)[C@H]3Cc4ccc(O)c5c4[C@@]2(CCN3CC2CC2)[C@H]1O5 [X]
IC50 Ratio, morphine IC50 (treated)/morphine IC50 (control) ([6]; test compound 2 × 10^-8 M): 1.9

CC(C)C[C@H](NC(=O)[C@H](Cc1ccccc1)NC(=O)CNC(=O)CNC(=O)[C@@H](N)Cc1ccc(O)cc1)C(=O)O [enkephalin]
hypotensive action [7]: potent hypotensive agents

C=CCN1CC[C@]23c4c5ccc(O)c4O[C@H]2C(=O)CC[C@@]3(O)[C@H]1C5 [naloxone, reference compound]
antagonistic effect (effects of morphine [3]; tested 2 hours after administration): its effect had already dissipated | block of β-endorphin-induced stimulation of food intake [8]: blocked
